# BindingDB's records for doi:10.1016/j.bmcl.2007.07.104 (Glaxosmithkline, 2007)
# Molecular target: Proto-oncogene tyrosine-protein kinase receptor Ret (Homo sapiens, UniProt P07949)
# Test: RET Kinase Inhibition Assay
# Settings: pH 7.4; 22 °C
# Proto-oncogene tyrosine-protein kinase receptor Ret, sequence (P07949 whole entry): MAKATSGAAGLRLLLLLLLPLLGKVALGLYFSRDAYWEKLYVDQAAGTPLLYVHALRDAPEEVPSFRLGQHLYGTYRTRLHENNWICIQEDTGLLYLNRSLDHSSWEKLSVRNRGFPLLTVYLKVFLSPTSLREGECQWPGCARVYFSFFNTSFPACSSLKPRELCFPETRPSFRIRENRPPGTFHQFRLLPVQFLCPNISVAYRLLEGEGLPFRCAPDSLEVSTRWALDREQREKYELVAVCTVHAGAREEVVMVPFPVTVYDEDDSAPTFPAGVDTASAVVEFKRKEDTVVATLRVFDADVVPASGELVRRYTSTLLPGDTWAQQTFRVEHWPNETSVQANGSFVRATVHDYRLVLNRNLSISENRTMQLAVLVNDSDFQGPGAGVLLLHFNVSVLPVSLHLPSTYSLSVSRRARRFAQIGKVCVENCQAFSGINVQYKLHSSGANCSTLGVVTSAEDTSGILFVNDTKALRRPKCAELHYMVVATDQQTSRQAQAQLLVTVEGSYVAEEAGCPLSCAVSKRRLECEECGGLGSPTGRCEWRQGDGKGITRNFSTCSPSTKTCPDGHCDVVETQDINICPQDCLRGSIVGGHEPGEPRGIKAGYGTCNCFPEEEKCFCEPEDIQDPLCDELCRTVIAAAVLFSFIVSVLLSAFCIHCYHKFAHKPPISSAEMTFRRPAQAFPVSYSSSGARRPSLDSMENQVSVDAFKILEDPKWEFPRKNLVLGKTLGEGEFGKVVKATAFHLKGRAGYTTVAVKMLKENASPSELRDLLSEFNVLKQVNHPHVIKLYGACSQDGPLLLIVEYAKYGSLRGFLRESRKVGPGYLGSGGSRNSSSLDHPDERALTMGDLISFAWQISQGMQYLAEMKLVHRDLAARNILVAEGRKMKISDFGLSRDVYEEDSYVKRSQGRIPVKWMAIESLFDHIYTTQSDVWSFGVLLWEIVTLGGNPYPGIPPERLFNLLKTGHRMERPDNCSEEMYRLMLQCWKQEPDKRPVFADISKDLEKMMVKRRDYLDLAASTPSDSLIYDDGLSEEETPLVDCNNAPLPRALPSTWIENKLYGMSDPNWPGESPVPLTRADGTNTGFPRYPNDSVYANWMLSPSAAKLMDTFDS
structure (smiles),measurement,value
Cc1ccc(O)cc1Nc1cc(C(F)(F)F)nc2ccc(-c3ccncc3)cc12 [4-methyl-3-{[6-(pyridin-4-yl)-2-(trifluoromethyl)quinolin-4-yl]amino}phenol],IC50,> 1000 nM
